In patent US8642631B2, “Methods of treating mammals with eustachian tube dysfunctions” (University of Melbourne, priority 2008, dated 2014):

Test system: Eustachian tube
Experiment: Eustachian tube function test (middle ear pressure equalisation on reflex swallowing) in anaesthetised rats
Assay type: in vivo, Sprague Dawley rats
Procedure: Animal experiments were conducted on female and male adult Sprague Dawley rats weighing 250-450 g. Up to five animals were used in each section of the experiment. In this figure, a small tube is glued into the tympanic bulla of an anaesthetised rat (A). The tube is connected to a syringe pump (B), a pressure transducer (C) and data recorder (D) and to a manometer (E). The syringe pump is used to increase pressure within the middle ear. […] From this it can be seen that intra-bulla pressure was increased from ambient (Amb) to around 130 mm of water. […] The overall pressure drop is a measure of the efficiency of pressure equalisation via the Eustachian tube. Each experiment consisted of a series of active Eustachian tube function tests preceded by a passive run. In the passive run pressure was increased in the bulla by a continuous air flow (30 ml/min) until the Eustachian tube opened spontaneously. While the air continued to flow, the pressure in the middle ear decreased until the Eustachian tube closed. Now the pressure in the middle ear, due to continued air flow, could build up again until the Eustachian tube opened a second time. This enabled the measurement of the passive opening and closing pressures of the Eustachian tube. The active runs consisted of three preceding control runs (C1-C3) followed by three runs assessing the effect of intervention S1-S6. At the start of each active run the pressure in the bulla was raised to 75% of the passive opening pressure of the Eustachian tube. At this point the air flow into the bulla was stopped. […] This caused reflex swallowing, which was accompanied by a momentary opening of the Eustachian tube, and reduced middle ear pressure step by step. In each active run 10 consecutive swallows were recorded. […]

Compound: CNCCc1ccccn1 [betahistine, N-methyl-2-pyridineethanaamine]
- increase in efficiency of Eustachian tube pressure equalisation (anaesthetised rats, betahistine applied within the tympanic bulla and flushed through the Eustachian tube, FIG. 4): around 30%
- effect on ET function (anaesthetised rats, systemic (intraperitoneal) injection, cumulative doses 1, 5 and 10 μl, total 16 μl, FIG. 5): no significant effect
- increase in efficiency of pressure equalisation through the Eustachian tube (healthy anaesthetised rats, betahistine diHCl 5 μl of 8 mg/mL (Vasomotal) applied to the nasopharynx, normalized to control measurement C3, FIG. 3): 31%
